“And” between values parts separate entries of the source, which are not always exact repeats. Identical values can stand only once.
Assays:
Rattus norvegicus [1] = test: Evaluated for %change in cholesterol fed rats for total cholesterol at the dose of 3 mg/kg determined by Chronic screen test; assay type: functional
Rattus norvegicus [2] = test: Evaluated for %change in cholesterol fed rats for HDL-C at the dose of 1 mg/kg determined by Chronic screen test; assay type: functional
Rattus norvegicus [3] = test: Effect on the Cholesterol fed rats for non-HDL-C in rats at the dose of 0.3 mg/kg by Chroinc screen test; assay type: functional; also: unit not given here
Rattus norvegicus [4] = test: Evaluated for %change in cholesterol fed rats for total cholesterol at the dose of 10 mg/kg determined by Chronic screen test; assay type: functional
Oryctolagus cuniculus [5] = test: Effect on Rabbits (Fed a Cholesterol-Free Casein Diet ) for plasma cholesterol at the dose of 10 mg/kg (post treatment); assay type: functional, organism-based; design: dose 10 mg/kg
Rattus norvegicus [6] = test: Effect on the Normal, Chow fed rats for Plasma total triglyceride level in rats at the dose of 30 mg/kg; assay type: functional, organism-based; design: dose 30 mg/kg
Rattus norvegicus [7] = test: Effect on the Normal, Chow fed rats for total cholesterol plasma level in rats at the dose of 10 mg/kg; assay type: functional, organism-based; design: dose 10 mg/kg
Rattus norvegicus [8] = test: Effect on the plasma Cholesterol level in rats at the dose of 0.1 mg/kg by Acute screen test; assay type: functional, organism-based; design: dose 0.1 mg/kg
Rattus norvegicus [9] = test: Effect on the Normal, Chow fed rats for Plasma total triglyceride level in rats at the dose of 3 mg/kg; assay type: functional, organism-based; design: dose 3 mg/kg
Rattus norvegicus [10] = test: Effect on the Cholesterol fed rats for HDL-C in rats at the dose of 3 mg/kg by Chroinc screen test; assay type: functional
Rattus norvegicus [11] = test: Effect on the Cholesterol fed rats for total cholesterol level in rats at the dose of 10 mg/kg by Chroinc screen test; assay type: functional; also: unit not given here
Rattus norvegicus [12] = test: Evaluated for %change in cholesterol fed rats for total cholesterol at the dose of 1 mg/kg determined by Chronic screen test; assay type: functional
Oryctolagus cuniculus [13] = test: Effect on Rabbits (Fed a Cholesterol-Free Casein Diet ) for plasma cholesterol at the dose of 3 mg/kg (post treatment); assay type: functional, organism-based; design: dose 3 mg/kg
Rattus norvegicus [14] = test: Effect on the Cholesterol fed rats for HDL-C in rats at the dose of 1 mg/kg by Chroinc screen test; assay type: functional; also: unit not given here
Rattus norvegicus [15] = test: Evaluated for %change in cholesterol fed rats for non-HDL-C at the dose of 0.01 mg/kg determined by Chronic screen test; assay type: functional
Rattus norvegicus [16] = test: Effect on the plasma cholesterol level in rats at the dose of 10 mg/kg by Acute screen test; assay type: functional, organism-based; design: dose 10 mg/kg
Rattus norvegicus [17] = test: Effect on the plasma Cholesterol level in rats at the dose of 0.3 mg/kg by Acute screen test; assay type: functional, organism-based; design: dose 0.3 mg/kg
Oryctolagus cuniculus [18] = test: Effect on Rabbits (Fed a Cholesterol-Free Casein Diet ) for plasma cholesterol at the dose of 3 mg/kg (pretreatment); assay type: functional, organism-based; design: dose 3 mg/kg
Rattus norvegicus [19] = test: Evaluated for %change in cholesterol fed rats for total cholesterol at the dose of 0.1 mg/kg determined by Chronic screen test; assay type: functional
Rattus norvegicus [20] = test: Effect on the Cholesterol fed rats for HDL-C in rats at the dose of 0.03 mg/kg by Chroinc screen test; assay type: functional; also: unit not given here
Rattus norvegicus [21] = test: Evaluated for %change in cholesterol fed rats for HDL-C at the dose of 0.01 mg/kg determined by Chronic screen test; assay type: functional
Rattus norvegicus [22] = test: Effect on the Cholesterol fed rats for non-HDL-C in rats at the dose of 0.1 mg/kg by Chroinc screen test; assay type: functional
Rattus norvegicus [23] = test: Evaluated for %change in cholesterol fed rats at the dose of 3 mg/kg determined by Acute screen test; assay type: functional
Rattus norvegicus [24] = test: Effect on the Cholesterol fed rats for non-HDL-C in rats at the dose of 0.01 mg/kg by Chroinc screen test; assay type: functional; also: unit not given here
Rattus norvegicus [25] = test: Effect on the Cholesterol fed rats for non-HDL-C in rats at the dose of 0.001 mg/kg by Chroinc screen test; assay type: functional
Rattus norvegicus [26] = test: Evaluated for %change in cholesterol fed rats for non-HDL-C at the dose of 0.03 mg/kg determined by Chronic screen test; assay type: functional
Rattus norvegicus [27] = test: Evaluated for %change in Normal, Chow fed rats for total cholesterol plasma level in rats at the dose of 3 mg/kg; assay type: functional
Rattus norvegicus [28] = test: Effect on the Cholesterol fed rats for total cholesterol level in rats at the dose of 1 mg/kg by Chroinc screen test; assay type: functional; also: unit not given here
Rattus norvegicus [29] = test: Effect on the Cholesterol fed rats for non-HDL-C in rats at the dose of 1 mg/kg by Chroinc screen test; assay type: functional
Rattus norvegicus [30] = test: Evaluated for %change in Normal, Chow fed for rats Plasma total triglyceride plasma level in rats at the dose of 30 mg/kg; assay type: functional
Rattus norvegicus [31] = test: Effect on the Cholesterol fed rats for non-HDL-C in rats at the dose of 10 mg/kg by Chroinc screen test; assay type: functional
Rattus norvegicus [32] = test: Effect on the Cholesterol fed rats for total cholesterol level in rats at the dose of 0.03 mg/kg by Chroinc screen test; assay type: functional; also: unit not given here
Rattus norvegicus [33] = test: Effect on the plasma cholesterol level in rats at the dose of 1 mg/kg by Acute screen test; assay type: functional, organism-based; design: dose 1 mg/kg
Rattus norvegicus [34] = test: Evaluated for %change in cholesterol fed rats for HDL-C at the dose of 0.3 mg/kg determined by Chronic screen test; assay type: functional
Oryctolagus cuniculus [35] = test: Effect on Rabbits (Fed a Cholesterol-Free Casein Diet ) for plasma cholesterol at the dose of 1 mg/kg (pretreatment); assay type: functional, organism-based; design: dose 1 mg/kg
Rattus norvegicus [36] = test: Effect on the Cholesterol fed rats for total cholesterol level in rats at the dose of 0.3 mg/kg by Chroinc screen test; assay type: functional
Rattus norvegicus [37] = test: Evaluated for %change in cholesterol fed rats at the dose of 0.3 mg/kg determined by Acute screen test; assay type: functional
Rattus norvegicus [38] = test: Evaluated for %change in cholesterol fed rats for HDL-C at the dose of 0.1 mg/kg determined by Chronic screen test; assay type: functional
Rattus norvegicus [39] = test: Effect on the Cholesterol fed rats for HDL-C in rats at the dose of 0.001 mg/kg by Chroinc screen test; assay type: functional; also: unit not given here
Rattus norvegicus [40] = test: Effect on the Cholesterol fed rats for total cholesterol level in rats at the dose of 0.001 mg/kg by Chroinc screen test; assay type: functional
Rattus norvegicus [41] = test: Effect on the Cholesterol fed rats for HDL-C in rats at the dose of 0.1 mg/kg by Chroinc screen test; assay type: functional
Rattus norvegicus [42] = test: Effect on the Cholesterol fed rats for HDL-C in rats at the dose of 0.3 mg/kg by Chroinc screen test; assay type: functional; also: unit not given here
Rattus norvegicus [43] = test: Evaluated for %change in cholesterol fed rats for total cholesterol at the dose of 0.3 mg/kg determined by Chronic screen test; assay type: functional
Rattus norvegicus [44] = test: Evaluated for %change in cholesterol fed rats at the dose of 0.1 mg/kg determined by Acute screen test; assay type: functional
Rattus norvegicus [45] = test: Evaluated for %change in cholesterol fed rats for total cholesterol at the dose of 0.03 mg/kg determined by Chronic screen test; assay type: functional
Rattus norvegicus [46] = test: Evaluated for %change in cholesterol fed rats at the dose of 10 mg/kg determined by Acute screen test; assay type: functional
Rattus norvegicus [47] = test: Effect on the Cholesterol fed rats for non-HDL-C in rats at the dose of 3 mg/kg by Chroinc screen test; assay type: functional; also: unit not given here
Rattus norvegicus [48] = test: Evaluated for %change in cholesterol fed rats at the dose of 1 mg/kg determined by Acute screen test; assay type: functional
Rattus norvegicus [49] = test: Effect on the Cholesterol fed rats for HDL-C in rats at the dose of 10 mg/kg by Chroinc screen test; assay type: functional
Rattus norvegicus [50] = test: Evaluated for %change in Normal, Chow fed for rats Plasma total triglyceride plasma level in rats at the dose of 10 mg/kg; assay type: functional
Rattus norvegicus [51] = test: Effect on the Cholesterol fed rats for total cholesterol level in rats at the dose of 0.01 mg/kg by Chroinc screen test; assay type: functional

`CC(C)c1cc(C(C)C)c(CC(=O)NS(=O)(=O)Oc2c(C(C)C)cccc2C(C)C)c(C(C)C)c1` [AVASIMIBE] gave a Change (Rattus norvegicus [1]) of -59%, a Change (Rattus norvegicus [2]) of 76% and a Non-HDL-C (Rattus norvegicus [3]) of 70. The Change (Rattus norvegicus [4]) was -69%, the Plasma cholesterol (Oryctolagus cuniculus [5]) was 118 mg/dL and the Plasma TG (Rattus norvegicus [6]) was 58 mg/dL. For the same compound, the Plasma TC (Rattus norvegicus [7]) was 44 mg/dL, the Plasma cholesterol (Rattus norvegicus [8]) was 124 mg/dL and the Plasma TG (Rattus norvegicus [9]) was 95 mg/dL. The HDL-C (Rattus norvegicus [10]) was 33, the TC (Rattus norvegicus [11]) was 69 and the Change (Rattus norvegicus [12]) was -61%. The Plasma cholesterol (Oryctolagus cuniculus [13]) was 171 mg/dL, the HDL-C (Rattus norvegicus [14]) was 25 and the Change (Rattus norvegicus [15]) was 17%. For the same compound, the Plasma cholesterol (Rattus norvegicus [16]) was 51 mg/dL, the Plasma cholesterol (Rattus norvegicus [17]) was 81 mg/dL and the Plasma cholesterol (Oryctolagus cuniculus [18]) was 250 mg/dL. For the same compound, the Change (Rattus norvegicus [19]) was -41% and -40%, the HDL-C (Rattus norvegicus [20]) was 15 and the Change (Rattus norvegicus [21]) was -12%. The Non-HDL-C (Rattus norvegicus [22]) was 114 and 306, the Change (Rattus norvegicus [23]) was -64% and the Non-HDL-C (Rattus norvegicus [24]) was 604. It also gave a Non-HDL-C (Rattus norvegicus [25]) of 535, a Change (Rattus norvegicus [26]) of -38% and a Change (Rattus norvegicus [27]) of -16%. The TC (Rattus norvegicus [28]) was 86, the Non-HDL-C (Rattus norvegicus [29]) was 61 and the Change (Rattus norvegicus [30]) was -66%. It also gave a Non-HDL-C (Rattus norvegicus [31]) of 33, a TC (Rattus norvegicus [32]) of 334 and a Plasma cholesterol (Rattus norvegicus [33]) of 72 mg/dL. For the same compound, the Change (Rattus norvegicus [34]) was 42%, the Plasma cholesterol (Oryctolagus cuniculus [35]) was 215 mg/dL and the TC (Rattus norvegicus [36]) was 90. The Change (Rattus norvegicus [37]) was -56%, the Change (Rattus norvegicus [38]) was 17% and 7% and the HDL-C (Rattus norvegicus [39]) was 16. For the same compound, the TC (Rattus norvegicus [40]) was 551, the HDL-C (Rattus norvegicus [41]) was 16 and 18 and the HDL-C (Rattus norvegicus [42]) was 20. It also gave a Change (Rattus norvegicus [43]) of -60%, a Change (Rattus norvegicus [44]) of -32% and a Change (Rattus norvegicus [45]) of -38%. The Change (Rattus norvegicus [46]) was -72%, the Non-HDL-C (Rattus norvegicus [47]) was 59 and the Change (Rattus norvegicus [48]) was -60%. The HDL-C (Rattus norvegicus [49]) was 36, the Change (Rattus norvegicus [50]) was -55% and the TC (Rattus norvegicus [51]) was 619.

From ChEMBL document CHEMBL1129601, “Inhibitors of acyl-CoA: cholesterol O-acyl transferase (ACAT) as hypocholesterolemic agents. CI-1011: an acyl sulfamate with unique cholesterol-lowering activity in animals fed noncholesterol-supplemented diets” (J Med Chem, 1996)
